The source of these data is US7288562B2, “Fluoro and sulphonylamino containing 3,6-disubstituted azabicyclo (3.1.0) hexane derivatives as muscarinic receptor antagonists” (priority 2002, dated 2007).

The test system of assay [1] is isolated rat bladder. The assay can be described thus: Functional experiments using isolated rat bladder (carbachol-induced contraction). The conditions noted are these: isolated rat bladder strips, carbachol concentration response curve. The protocol: Functional Experiments Using Isolated Rat Bladder:
Animals were euthanized by overdose of urethane and whole bladder was isolated and removed rapidly and placed in ice cold Tyrode buffer with the following composition (mMol/L) NaCl 137; KCl 2.7; CaCl2 1.8; MgCl2 0.1; NaHCO3 11.9; NaH2PO4 0.4; Glucose 5.55 and continuously gassed with 95% O2 and 5% CO2.
The bladder was cut into longitudinal strips (3 mm wide and 5-6 mm long) and mounted in 10 ml organ baths at 30° C., with one end connected to the base of the tissue holder and the other end connected to a polygraph through a force displacement transducer. Each tissue was maintained at a constant basal tension of 2 g and allowed to equilibrate for 1 hour during which the PSS was changed every 15 min. At the end of equilibration period the stabilization of the tissue contractile response was assessed with 1 μmol/L of Carbachol consecutively for 2-3 times. Subsequently a cumulative concentration response curve to carbachol (10^−9 mol/L to 3×10^−5 mol/L) was obtained. After several washes, once the baseline was achieved, cumulative concentration response curve was obtained in presence of NCE (NCE added 20 min. prior to the second CRC).
The contractile results were expressed as % of control E max. ED50 values were calculated by fitting a non-linear regression curve (Graph Pad Prism). pKB values were calculated by the formula pKB=−log [(molar concentration of antagonist/(dose ratio-1))]
• dose ratio=ED50 in the presence of antagonist/ED50 in the absence of antagonist.

Assay [2] has as its target T1, M2 muscarinic receptor (Rattus norvegicus, UniProt P10980).
T1 construct: from tissue; host or cells: rat heart membrane homogenate
T1 sequence (P10980 1-466): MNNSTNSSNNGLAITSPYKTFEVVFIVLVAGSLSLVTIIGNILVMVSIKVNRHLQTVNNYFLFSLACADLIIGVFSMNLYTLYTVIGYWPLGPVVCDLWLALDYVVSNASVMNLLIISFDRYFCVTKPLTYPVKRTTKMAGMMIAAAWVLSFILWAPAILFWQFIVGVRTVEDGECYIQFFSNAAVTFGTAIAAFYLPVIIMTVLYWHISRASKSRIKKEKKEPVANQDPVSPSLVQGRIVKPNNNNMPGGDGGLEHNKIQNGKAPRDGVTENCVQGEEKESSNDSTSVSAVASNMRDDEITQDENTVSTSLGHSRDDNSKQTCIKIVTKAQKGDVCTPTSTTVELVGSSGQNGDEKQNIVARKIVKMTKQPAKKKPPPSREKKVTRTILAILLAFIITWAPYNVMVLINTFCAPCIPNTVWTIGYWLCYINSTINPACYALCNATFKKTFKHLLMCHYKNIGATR
The assay can be described thus: Radioligand binding assay, [3H]-N-methylscopolamine, rat heart membranes. The conditions noted are these: [3H]-NMS. The protocol: (§1) The affinity of test compounds for M2 and M3 muscarinic receptor subtypes was determined by [^3H]-N-methylscopolamine binding studies using rat heart and submandibular gland respectively as described by Moriya et al., (Life Sci, 1999, 64(25):2351-2358) with minor modifications.
(§2) Membrane preparation: Submandibular glands and heart were isolated and placed in ice cold homogenising buffer (HEPES 20 mM, 10 mM EDTA, pH 7.4) immediately after sacrifice. The tissues were homogenised in 10 volumes of homogenising buffer and the homogenate was filtered through two layers of wet gauze and filtrate was centrifuged at 500 g for 10 min. The supernatant was subsequently centrifuged at 40,000 g for 20 min. The pellet thus obtained was resuspended in same volume of assay buffer (HEPES 20 mM, EDTA 5 mM, pH 7.4) and were stored at −70° C. until the time of assay.
(§3) Ligand binding assay: The compounds were dissolved and diluted in DMSO. The membrane homogenates (150-250 μg protein) were incubated in 250 μl of assay buffer (HEPES 20 mM, pH 7.4) at 24-25° C. for 3 h. Non-specific binding was determined in the presence of 1 μM atropine. The incubation was terminated by vacuum filtration over GF/B fiber filters(Wallac). The filters were then washed with ice cold 50 mM Tris HCl buffer (pH 7.4). The filter mats were dried and bound radioactivity retained on filters was counted. The IC50 & Kd were estimated by using the non-linear curve fitting program using G Pad Prism software. The value of inhibition constant Ki was calculated from competitive binding studies by using Cheng & Prusoff equation (Biochem Pharmacol, 1973, 22: 3099-3108), Ki=IC50/(1+L/Kd), where L is the concentration of
(§4) [^3H]NMS used in the particular experiment.

Assay [3] deals with T2, M3 muscarinic receptor (Rattus norvegicus, UniProt P08483).
T2 construct: from tissue; host or cells: rat submandibular gland membrane homogenate
T2 sequence (P08483 whole entry): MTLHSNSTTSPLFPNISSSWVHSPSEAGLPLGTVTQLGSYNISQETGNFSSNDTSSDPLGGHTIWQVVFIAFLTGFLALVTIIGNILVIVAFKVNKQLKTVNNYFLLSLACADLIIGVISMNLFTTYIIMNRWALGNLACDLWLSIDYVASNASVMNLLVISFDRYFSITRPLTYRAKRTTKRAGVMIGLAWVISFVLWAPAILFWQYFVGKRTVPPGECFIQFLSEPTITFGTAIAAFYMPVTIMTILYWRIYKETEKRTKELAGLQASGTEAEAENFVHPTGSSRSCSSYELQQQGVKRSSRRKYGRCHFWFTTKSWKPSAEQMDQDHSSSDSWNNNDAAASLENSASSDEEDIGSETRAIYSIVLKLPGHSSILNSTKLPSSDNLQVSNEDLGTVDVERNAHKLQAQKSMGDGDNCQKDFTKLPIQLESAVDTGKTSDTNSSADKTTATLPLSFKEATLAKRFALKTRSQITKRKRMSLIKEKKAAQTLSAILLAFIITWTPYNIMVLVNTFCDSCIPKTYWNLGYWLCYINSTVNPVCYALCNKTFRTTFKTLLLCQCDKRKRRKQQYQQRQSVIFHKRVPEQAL
The assay can be described thus: Radioligand binding assay, [3H]-N-methylscopolamine, rat submandibular gland membranes. The conditions noted are these: [3H]-NMS. The procedure:
as §1, §2, §3, §4

The mark [4] stands for this setting: read-out: Receptor Binding Assay M2 pKi (converted).
[5] abbreviates: read-out: Receptor Binding Assay M3 pKi (converted).

Like-named read-outs stand apart in the source and are kept apart here. Where only a bound is given, the exact number is not on record here.

With `O=C(NCC1C2CN(Cc3ccccc3)CC12)C(O)(c1ccccc1)C1CCC(F)(F)C1` (mixture of isomers) [Compound No. 3, (2Ror 2S)-(1α,5α,6α)-N-[3-benzyl-3-azabicyclo[3.1.0]hexyl-6-(aminomethyl)-yl]-2-[(1R or 1S)-3,3-difluorocyclopentyl]-2-hydroxy-2-phenyl acetamide], in assay [1], the “Functional Assay pKB” value was 8.55 ± 0.25. Moreover, the Ki in assay [2] (setting [4]) is 0.251 µM; in assay [3] (setting [5]), 0.00631 µM.
On to `O=C(NC[C@@H]1[C@H]2CN(Cc3ccccc3)C[C@@H]12)[C@](O)(c1ccccc1)C1CCC(F)(F)C1` (single isomer, unassigned) [Compound No. 1A, (2R)-(1α,5α,6α)-N-[3-benzyl-3-azabicyclo[3.1.0]hexyl-6-(aminomethyl)-yl]-2-[(1R or 1S)-3,3-difluorocyclopentyl]-2-hydroxy-2-phenylacetamide], for which the “Functional Assay pKB” value in assay [1] was determined as 9.1 ± 0.2. The Ki in assay [2] (setting [4]) is 0.135 µM; in assay [3] (setting [5]), 0.00562 µM.
As to `O=C(NC[C@@H]1[C@H]2CN(Cc3ccccc3)C[C@@H]12)[C@](O)(c1ccccc1)C1CCC(F)(F)C1` (single isomer, unassigned) [Compound No. 1B, (2R)-(1α,5α,6α)-N-[3-benzyl-3-azabicyclo[3.1.0]hexyl-6-(aminomethyl)-yl]-2-[(1R or 1S)-3,3-difluorocyclopentyl]-2-hydroxy-2-phenylacetamide], in assay [1], the “Functional Assay pKB” value is given as 8.98 ± 0.06. Also, the Ki in assay [2] (setting [4]) was 0.229 µM; in assay [3] (setting [5]), 0.00617 µM.
Regarding `O=C(NCC1C2CN(Cc3ccccc3)CC12)C(O)(c1ccccc1)C1CCC(F)C1` (single isomer, unassigned) [Compound No. 4, (2R or 2S)-(1α,5α,6α)-N-[3-benzyl-3-azabicyclo[3.1.0]hexyl-6-(aminomethyl)-yl]-2-[(1R or 1S, 3R or 3S)-3-fluorocyclopentyl]-2-hydroxy-2-phenyl acetamide], in assay [1], the “Functional Assay pKB” value amounted to 8.33 ± 0.15. For the same compound, the Ki in assay [2] (setting [4]) is 0.138 µM; in assay [3] (setting [5]), 0.00589 µM.
`O=C(NCC1C2CN(Cc3ccccc3)CC12)C(O)(c1ccccc1)C1CCC(NS(=O)(=O)c2ccc([N+](=O)[O-])cc2)C1` (single isomer, unassigned) [Compound No. 6, (2R)-(1α,5α,6α)-N-[3-benzyl-3-azabicyclo[3.1.0]hexyl-6-(aminomethyl)-yl]-2-[(1R or 1S, 3R or 3S)-3-(4-nitrophenyl)sulphonylaminocyclopentyl]-2-hydroxy-2-phenylacetamide]: in assay [1], the “Functional Assay pKB” value is given as 7.21 ± 0.20. Moreover, the Ki in assay [2] (Receptor Binding Assay M2 pKi) was above 1.58 µM; in assay [3] (Receptor Binding Assay M3 pKi) it was 0.0219 µM.
Regarding `O=C(COCc1ccccc1)NC1CCC(C(O)(C(=O)NCC2C3CN(Cc4ccccc4)CC23)c2ccccc2)C1` (single isomer, unassigned) [Compound No. 8, (2R)-(1α,5α,6α)-N-[3-benzyl-3-azabicyclo[3.1.0]hexyl-6-(aminomethyl)-yl]-2-[(1R or 1S, 3R or 3S)-3-benzyloxyacetylaminocyclopentyl]-2-hydroxy-2-phenylacetamide], the “Functional Assay pKB” value in assay [1] is recorded as 7.08 ± 0.18. Moreover, the Ki in assay [2] (setting [4]) was 0.209 µM; in assay [3] (setting [5]), 0.0347 µM.
`O=C(NC[C@@H]1[C@H]2CN(Cc3ccccc3)C[C@@H]12)[C@](O)(c1ccccc1)C1CCC(F)C1` (stereo partly drawn) [Compound No. 2, (2R(1α,5α,6α)-N-[3-benzyl-3-azabicyclo[3.1.0]hexyl-6-(aminomethyl)-yl]-2-[(1R or 1S, 3R or 3S)-3-fluorocyclopentyl]-2-hydroxy-2-phenylacetamide]: the “Functional Assay pKB” value in assay [1] came out at 8.84 ± 0.07. For the same compound, the values for the Ki in assay [2] (setting [4]) and in assay [3] (setting [5]) were 0.126 µM and 0.00398 µM, respectively.
For `O=C(Cc1ccccc1)NC1CCC([C@](O)(C(=O)NC[C@@H]2[C@H]3CN(Cc4ccccc4)C[C@@H]23)c2ccccc2)C1` (stereo partly drawn) [Compound No. 5, (2R)-(1α,5α,6α)-N-[3-benzyl-3-azabicyclo[3.1.0]hexyl-6-(aminomethyl)-yl]-2-[(1R or 1S, 3R or 3S)-3-phenylacetylaminocyclopentyl]-2-hydroxy-2-phenylacetamide], the “Functional Assay pKB” value in assay [1] turned out to be 7.07 ± 0.11. For the same compound, the Ki in assay [2] (setting [4]) is 0.832 µM; in assay [3] (setting [5]), 0.0398 µM.
Consider `O=C(NC[C@@H]1[C@H]2CN(Cc3ccccc3)C[C@@H]12)[C@](O)(c1ccccc1)C1CCC(NS(=O)(=O)c2ccccc2)C1` (stereo partly drawn) [Compound No. 7, (2R)-(1α,5α,6α)-N-[3-benzyl-3-azabicyclo[3.1.0]hexyl-6-(aminomethyl)-yl]-2-[(1R or 1S, 3R or 3S)-3-phenylsulphonylaminocyclopentyl]-2-hydroxy-2-phenylacetamide], for which, in assay [1], the “Functional Assay pKB” value is on record as 6.89 ± 0.29. The values for the Ki in assay [2] (Receptor Binding Assay M2 pKi) and in assay [3] (Receptor Binding Assay M3 pKi) were above 1.58 µM and 0.0501 µM, respectively.
Consider `COc1ccc(S(=O)(=O)NC2CCC([C@](O)(C(=O)NC[C@@H]3[C@H]4CN(Cc5ccccc5)C[C@@H]34)c3ccccc3)C2)cc1` (stereo partly drawn) [Compound No. 9, (2R)-(1α,5α,6α)-N-[3-benzyl-3-azabicyclo[3.1.0]hexyl-6-(aminomethyl)-yl]-2-[(1R or 1S, 3R or 3S)-3-(4-methoxyphenyl)sulphonylaminocyclopentyl]-2-hydroxy-2-phenylacetamide], for which the values for the Ki in assay [2] (Receptor Binding Assay M2 pKi) and in assay [3] (Receptor Binding Assay M3 pKi) were above 1 µM and 0.204 µM, respectively.
The matching figures for `O=C(NC[C@@H]1[C@H]2CN(Cc3ccccc3)C[C@@H]12)[C@](O)(c1ccccc1)C1CCC(NS(=O)(=O)c2ccc(Br)cc2)C1` (stereo partly drawn) [Compound No. 10, (2R)-(1α,5α,6α)-N-[3-benzyl-3-azabicyclo[3.1.0]hexyl-6-(aminomethyl)-yl]-2-[(1R or 1S, 3R or 3S)-3-(4-bromophenyl)sulphonylaminocyclopentyl]-2-hydroxy-2-phenylacetamide]: above 1 µM and 0.129 µM.
